Test results from PubChem BioAssay AID712 (Emory University Molecular Libraries Screening Center, 2007).
Activity calls are given as the source filed them. How the calls were made is not given here.

target: Heat shock protein HSP 90-alpha (Homo sapiens) (UniProt P07900); test: tumor Hsp90 inhibitor potency, dose response (AID 712); settings: Hsp90 inhibition assay

SMILES | IC50
CCOC(=O)c1sc(NC(=O)CSc2nnc(-c3ccc(OC)cc3)n2CCOC)nc1C | > 50 µM (inactive)
Nc1cc(=O)[nH]c(SCC(=O)c2ccc3c(c2)OCO3)n1 | > 50 µM (inactive)
Nc1cccc(S(=O)(=O)Nc2ccc(O)c(-c3ccccc3O)c2)c1 | > 50 µM (inactive)
Nc1ccc(NS(=O)(=O)c2ccccc2)c(O)c1 | > 50 µM (inactive)
N#CCSc1nnc2[nH]c(=O)cc(N)n12 | > 50 µM (inactive)
O=C(c1cc(-c2ccncc2)nc2ccc(Br)cc12)N1CCN(c2ccccn2)CC1 | > 50 µM (inactive)
Oc1ccc2[nH]ccc2c1 | > 50 µM (inactive)
CCCC(C)C(=O)Nc1cc(OC)ccc1OC (stereo not given) | > 50 µM (inactive)
CCCC(C)N(CC)CCNc1cc(OC)cc2cccnc12 (stereo not given) | 12.5 µM
COc1ccc(OC)c(-n2c(C)nc3cc(C(=O)O)ccc32)c1 | 29.8 µM
CC1(C)CC(=O)c2c(O)cc(O)cc2O1 | > 50 µM (inactive)
Cc1ccc2[nH]c3c(c2c1)CN(C(=O)CN1CCN(c2ccccc2)CC1)CC3 | > 50 µM (inactive)
CCOc1ccc(S(=O)(=O)Nc2cc(Sc3ncn[nH]3)c3oc(=O)sc3c2)cc1 | inactive
O=[N+]([O-])c1ccc(NS(=O)(=O)c2ccccc2)c(O)c1 | > 50 µM (inactive)
COc1cc(NCCCC(C)=NO)c2nccc(OCc3ccccc3)c2c1 | > 50 µM (inactive)
COc1cccc2c1C(=O)c1c(O)c3c(c(O)c1C2=O)C[C@@](O)(C(C)=O)C[C@@H]3O[C@H]1C[C@H](N)[C@H](O)[C@H](C)O1 | 0.174 µM
O=C1C(c2cnc3ccccc3n2)=C(O)c2ccccc21 | 20 µM
CCOc1ccc2ccccc2c1-c1cc(NS(=O)(=O)c2ccc(OC)c(OC)c2)ccc1N | > 50 µM (inactive)
Cc1ccc(S(=O)(=O)Nc2ccc3oc(=O)sc3c2)c(C)c1 | inactive
COc1ccc(-c2nc(CS(=O)CC(=O)NCc3ccccn3)c(C)o2)cc1 (stereo not given) | 19.3 µM
CC(C)OC(=O)CSc1nc2ccccc2s1 | > 50 µM (inactive)
CCOC(=O)Cc1c[nH]c2ccc(N)cc12 | > 50 µM (inactive)
Nc1nc2c(s1)CCc1c-2cnn1-c1ccccc1 | 11.2 µM
O=C(O)c1ccc2c3c(ncnc13)-c1ccccc1C2=O | 5.22 µM
O=C(NC1(C(F)(F)F)Oc2ccc(Cl)cc2O1)N1CCC2(CC1)OCCO2 (stereo not given) | 23.4 µM
O=C(Cn1cnc2ccccc2c1=O)NCCC(=O)Nc1ccc2c(c1)OCCO2 | > 50 µM (inactive)
COC(=O)c1ccc2c(c1)SC1=C(CCCC1=O)N2 | 10.9 µM
O=c1cc(NCCCO)c2ccccc2o1 | > 50 µM (inactive)

SMILES | IC50
c1ccc2[nH]c(SCc3ccc(-c4nnco4)cc3)nc2c1 | > 50 µM (inactive)
Nc1ccc(NS(=O)(=O)c2cccc([N+](=O)[O-])c2)cc1-c1ccccc1O | > 50 µM (inactive)
O=C(COc1ccc(-c2ccccc2)cc1)N1CCN(C(=O)c2cccnc2)CC1 | > 50 µM (inactive)
O=S(=O)(Nc1ccc(Cl)cc1O)c1ccccc1 | > 50 µM (inactive)
O=C(c1ccc2ccccc2c1)N1CCN(c2ccc(O)cc2)CC1 | > 50 µM (inactive)
Oc1c(I)cc(Cl)c2cccnc12 | > 50 µM (inactive)
O=C(O)/C=C/c1ccc(O)c(O)c1 | > 50 µM (inactive)
Nc1ccc2ncccc2c1N | 3.38 µM
COc1cc(NS(=O)(=O)c2ccc(F)c(C#N)c2)c2ncccc2c1 | > 50 µM (inactive)
CN(C)[C@@H]1C(=O)C(C(N)=O)=C(O)[C@@]2(O)C(=O)C3=C(O)c4c(O)cccc4[C@@](C)(O)[C@H]3C[C@@H]12 | 22.4 µM
O=S(=O)(c1cccc(-c2nnco2)c1)N1CCCC1 | > 50 µM (inactive)
NCc1cc(S(=O)(=O)Nc2cc(O)cc3cccnc23)ccc1F | > 50 µM (inactive)
O=[N+]([O-])c1cc(O)cc2cccnc12 | 1.56 µM
Cc1nnc(NC(=O)CSc2nc(N)cc(N)n2)s1 | > 50 µM (inactive)
CCOc1ccc2ccccc2c1-c1cc(NS(=O)(=O)c2ccc(C)cc2)ccc1N | > 50 µM (inactive)
CC(C)(C)OC(=O)Nc1cccc(NS(=O)(=O)c2cc(Cl)ccc2Cl)c1-c1ccccc1O | > 50 µM (inactive)
Oc1cccc2cccnc12 | > 50 µM (inactive)
COc1cc(N)c2nccc(OCc3ccccc3)c2c1 | > 50 µM (inactive)
Nc1ccc(Cc2ccccc2)c(O)c1 | > 50 µM (inactive)
O=C1c2ccccc2-c2onc3ccc(NCc4ccco4)c1c23 | < 1.56 µM
Nc1ccc(Nc2nc3ccccc3s2)c(O)c1 | > 50 µM (inactive)
Cc1occc1C(=O)NC(C)C(C)(C)C (stereo not given) | > 50 µM (inactive)
Nc1cccc2cnccc12 | > 50 µM (inactive)
C[C@H]1CCC[C@H](O)CCCCCc2cc(O)cc(O)c2C(=O)O1 | 2.65 µM
COc1cc(NCCCC(C)N)c2nccc(Cl)c2c1 (stereo not given) | 12.5 µM
Cn1ncnc2c(=O)n(C)c(=O)nc1-2 | 0.238 µM
CCOC(=O)NC1(Nc2ccc(Cl)cn2)Oc2ccccc2O1 | > 50 µM (inactive)
